Source: patent publication US20110039890A1, “4-[2,3-Difluoro-6-(2-fluoro-4-methyl-phenylsulfanyl)-phenyl]-piperidine” (H. LUNDBECK A/S, priority 2007, published 2011)

How the values were obtained:
5-HT2C receptor [1] = molecular target: T1, 5-HT2C receptor (Homo sapiens, UniProt P28335); test: functional assay, 5-HT2C antagonism; assay type: cell-based; settings: read-out: Kb, antagonist of the 5-HT2C receptor
T1 sequence (P28335 33-458): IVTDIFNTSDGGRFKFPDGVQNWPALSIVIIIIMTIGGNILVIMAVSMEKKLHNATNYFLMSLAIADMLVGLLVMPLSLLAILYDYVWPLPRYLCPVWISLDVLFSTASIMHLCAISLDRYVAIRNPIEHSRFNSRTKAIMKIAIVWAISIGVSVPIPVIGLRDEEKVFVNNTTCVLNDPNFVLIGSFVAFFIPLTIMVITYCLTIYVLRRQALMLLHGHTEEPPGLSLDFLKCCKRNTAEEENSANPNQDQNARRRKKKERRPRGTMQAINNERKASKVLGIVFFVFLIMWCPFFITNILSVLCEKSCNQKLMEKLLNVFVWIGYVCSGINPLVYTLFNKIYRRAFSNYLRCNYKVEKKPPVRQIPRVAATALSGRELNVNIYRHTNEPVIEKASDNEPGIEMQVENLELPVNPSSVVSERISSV

5-HT2C receptor [2] = molecular target: T1, 5-HT2C receptor; test: affinity to human serotonin receptor 5-HT2C; assay type: binding; settings: calculated from the Cheng-Prusoff equation
From the text: (§1) Affinity (Ki, nM) for compound I to human serotonin receptors calculated from the Cheng-Prusoff equation

[3] = molecular target: T2, [3H]-serotonin reuptake (SERT) (Rattus norvegicus, UniProt P31652); test: inhibition of [3H]-serotonin reuptake in rat synaptosomes; assay type: biochemical
T2 construct: from tissue
T2 sequence (P31652 whole entry): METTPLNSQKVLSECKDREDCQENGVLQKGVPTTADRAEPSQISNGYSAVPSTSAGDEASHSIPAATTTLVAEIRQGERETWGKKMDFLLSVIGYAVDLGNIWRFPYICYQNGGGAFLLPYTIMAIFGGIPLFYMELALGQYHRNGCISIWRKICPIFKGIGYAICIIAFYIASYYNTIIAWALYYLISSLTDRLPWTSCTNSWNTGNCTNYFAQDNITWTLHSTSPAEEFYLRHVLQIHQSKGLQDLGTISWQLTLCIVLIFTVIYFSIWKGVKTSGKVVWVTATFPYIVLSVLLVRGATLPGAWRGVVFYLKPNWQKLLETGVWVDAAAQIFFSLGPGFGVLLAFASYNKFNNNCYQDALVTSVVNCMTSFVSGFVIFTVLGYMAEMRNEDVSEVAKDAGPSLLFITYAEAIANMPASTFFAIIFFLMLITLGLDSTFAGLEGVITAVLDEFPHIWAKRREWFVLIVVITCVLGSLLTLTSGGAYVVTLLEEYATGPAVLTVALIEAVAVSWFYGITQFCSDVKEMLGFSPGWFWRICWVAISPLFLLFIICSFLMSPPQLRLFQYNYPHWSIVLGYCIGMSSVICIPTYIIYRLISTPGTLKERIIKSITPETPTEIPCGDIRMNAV
From the text: (§2) IC50 (nM) values Compound I inhibition of the reuptake in rat synaptosomes:
(§3) [^3H]-serotonin: 2.4 [^3H]-noradrenaline: 12

[4] = system: mice, formalin-injected hind paw; test: formalin model of neuropathic pain; assay type: in vivo; settings: for time spent licking the injured paw, 0-5 minutes: first phase, vehicle 51; for time spent licking the injured paw, 20-30 minutes: second phase, vehicle 66
Procedure: There are several well validated animal models of neuropathic pain available for assess of antinociceptive potential of drugs. Among the most frequently used model are chronic constriction injury models (for example Bennett and Xie, Pain, 1988) and the capsaicin (Gilchrist et al., Pain 1996) and formalin [Neuropharm., 48, 252-263, 2005; Pain, 51, 5-17, 1992] models. […] In this model, mice receive an injection of formalin (4.5%, 20 μl) into the plantar surface of the left hind paw and are afterwards placed into individual glass beakers (2 l capacity) for observation. The irritation caused by the formalin injection elicits a characteristic biphasic behavioural response, as quantified by the amount of time spent licking the injured paw. The first phase (˜0-10 minutes) represents direct chemical irritation and nociception, whereas the second (˜20-30 minutes) is thought to represent pain of neuropathic origin. The two phases are separated by a quiescent period in which behaviour returns to normal. Measuring the amount of time spent licking the injured paw in the two phases assesses the effectiveness of test compounds to reduce the neuropathic-like pain response.

5-HT2A receptor [5] = molecular target: T3, 5-HT2A receptor (Homo sapiens, UniProt P28223); test: affinity to human serotonin receptor 5-HT2A; assay type: binding; settings: calculated from the Cheng-Prusoff equation
T3 sequence (P28223 whole entry): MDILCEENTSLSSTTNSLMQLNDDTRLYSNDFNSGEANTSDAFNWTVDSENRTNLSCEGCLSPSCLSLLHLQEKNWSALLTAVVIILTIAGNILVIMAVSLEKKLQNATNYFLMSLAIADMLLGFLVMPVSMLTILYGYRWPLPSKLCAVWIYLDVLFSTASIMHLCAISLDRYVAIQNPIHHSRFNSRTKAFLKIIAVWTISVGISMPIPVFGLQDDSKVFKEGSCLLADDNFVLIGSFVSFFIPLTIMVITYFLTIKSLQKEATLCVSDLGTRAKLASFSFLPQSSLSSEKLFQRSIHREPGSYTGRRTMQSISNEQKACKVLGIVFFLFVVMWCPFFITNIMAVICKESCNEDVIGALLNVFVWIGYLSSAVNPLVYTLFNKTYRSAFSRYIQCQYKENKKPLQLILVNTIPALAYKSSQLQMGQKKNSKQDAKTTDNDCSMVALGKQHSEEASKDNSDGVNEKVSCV
From the text: as §1

[6] = molecular target: T4, [3H]-noradrenaline reuptake (NAT) (Rattus norvegicus, UniProt Q63380); test: inhibition of [3H]-noradrenaline reuptake in rat synaptosomes; assay type: biochemical
T4 construct: from tissue
T4 sequence (Q63380 1-617): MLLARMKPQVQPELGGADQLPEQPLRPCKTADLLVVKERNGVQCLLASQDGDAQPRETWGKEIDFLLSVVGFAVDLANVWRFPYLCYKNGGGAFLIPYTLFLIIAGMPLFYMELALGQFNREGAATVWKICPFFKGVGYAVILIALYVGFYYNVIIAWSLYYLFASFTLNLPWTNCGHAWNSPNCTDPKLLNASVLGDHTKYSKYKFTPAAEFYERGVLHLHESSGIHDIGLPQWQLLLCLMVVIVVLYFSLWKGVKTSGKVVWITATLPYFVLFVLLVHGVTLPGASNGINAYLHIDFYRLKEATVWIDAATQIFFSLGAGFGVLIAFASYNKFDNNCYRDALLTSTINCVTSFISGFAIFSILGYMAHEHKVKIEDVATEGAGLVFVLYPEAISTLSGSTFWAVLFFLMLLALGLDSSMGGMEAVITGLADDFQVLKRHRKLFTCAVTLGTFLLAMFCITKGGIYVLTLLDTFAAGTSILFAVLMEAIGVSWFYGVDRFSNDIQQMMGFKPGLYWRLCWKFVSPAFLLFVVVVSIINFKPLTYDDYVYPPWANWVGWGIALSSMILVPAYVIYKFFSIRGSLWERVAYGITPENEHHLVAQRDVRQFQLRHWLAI
From the text: as §2, §3

5-HT2A receptor [7] = molecular target: T3, 5-HT2A receptor; test: functional FLIPR assay, 5-HT2A antagonism; assay type: cell-based; settings: read-out: Kb, antagonist of the 5-HT2A receptor

`Cc1ccc(Sc2ccc(F)c(F)c2C2CCNCC2)c(F)c1` [compound I, 4-[2,3-difluoro-6-(2-fluoro-4-methyl-phenylsulfanyl)-phenyl]-piperidine] was tested, and the Kb (5-HT2C receptor [1]) was roughly 35 nM, the Ki (5-HT2C receptor [2]) was 4.9 nM and the IC50 [3] was 2.4 nM. For the same molecule, the “time spent licking the injured paw, 0-5 minutes” value ([4]; 0.25 mg/kg s.c) was 40 s, the “time spent licking the injured paw, 20-30 minutes” value ([4]; 0.25 mg/kg s.c) was 48 s and the “time spent licking the injured paw, 0-5 minutes” value ([4]; 1 mg/kg s.c) was 40 s. The “time spent licking the injured paw, 20-30 minutes” value ([4]; 1 mg/kg s.c) was 21 s, the “time spent licking the injured paw, 0-5 minutes” value ([4]; 2.5 mg/kg s.c) was 31 s and the “time spent licking the injured paw, 20-30 minutes” value ([4]; 2.5 mg/kg s.c) was 7 s. For the same molecule, the “effect in the first phase (direct chemical irritation and nociception)” value ([4]; 0.25-2.5 mg/kg s.c, in words) was “little effect”, the “effect on time spent licking the injured paw in the second phase (neuropathic pain)” value ([4]; 0.25-2.5 mg/kg s.c, in words) was “clear and dose-dependent decrease” and the Ki (5-HT2A receptor [5]) was 13 nM. The IC50 [6] was 12 nM and the Kb (5-HT2A receptor [7]) was roughly 130 nM.
